Results reported in patent US20200289482A1, “CYSTIC FIBROSIS TRANSMEMBRANE CONDUCTANCE REGULATOR MODULATORS FOR TREATING AUTOSOMAL DOMINANT POLYCYSTIC KIDNEY DISEASE” (The Johns Hopkins University, priority 2017, published 2020).

What was measured:
[1] = system: PN cells; experiment: BrdU cell proliferation assay; type: cell-based, mouse; details: 1 and 10 μM vs DMSO-treated cells
Text: FIG. 3A, FIG. 3B, FIG. 3C, and FIG. 3D show cell proliferation is reduced by VX-809. (FIG. 3A-FIG. 3B) Proliferation in kidneys of Pkd1^fl/fl; Pax8^rtTA; TetO-cre mice. Representative images of Ki67 (a cellular marker for proliferation) staining of PN21 kidney sections from DMSO- and VX-809-treated mice. Arrows indicate Ki67-positive cells. Pictures were acquired with a Zeiss microscope equipped with 20× objective. (FIG. 3C) Summary data for Ki67-positive cells. Columns represent averages±standard errors of DMSO (vehicle)-treated (n=3) and VX-809-treated (n=3) mice. Statistical analysis was performed using a two-tailed Student's t test. (FIG. 3D) Proliferation in PN cells. PN cells were treated with VX-809 or DMSO). The bromodeoxyuridine (BrdU) concentration in the cells was measured by using a BrdU cell proliferation assay kit (Millipore Sigma #2750) according to the manufacturer's protocol. Columns represent averages±SEs of the OD of BrdU at 450/550 […]. Data were analyzed using Student's t-test, with n=5-7. Methods were described previously (62). […]; **P<0.01;
A hallmark of the cysts in ADPKD is an increase in proliferation in response to cAMP (23). Therefore, it was determined whether VX-809 would affect proliferation.

[2] = system: Hsp27; experiment: Western blot of Hsp27 in kidney tissue lysates; type: in vivo, mouse; details: cyst induced pkd−/− mice, VX-809 30 mg/kg BW
Description: FIG. 7A, FIG. 7B, FIG. 7C, FIG. 7D, FIG. 7E, and FIG. 7F show chaperone expression is altered in mice by VX-809. (FIG. 7A-FIG. 7B) Representative Western blot images of HSP27, 70, 90 and HSP40 in lysates of kidney tissue from no cyst induced (ND), cyst induced with Doxycycline (D) or cyst induced pkd−/− mice treated with VX-809 (D+VX-809) 30 mg/kg BW. (FIG. 7C, FIG. 7D, FIG. 7E, and FIG. 7F) Columns represent averages±standard errors of HSP27, 70, 90 and HSP40 expression. Data were analyzed by non-parametric t-test. n=4 for each treated and control groups. Black lines between lanes represent representative experiments from the same gel. *P<0.05; **P<0.01; To facilitate their growth in the kidney, cysts have developed an altered network of proteins that most likely serves to protect them from stress (34). Next, it was determined whether VX-809 would alter the levels of Hsps in pkd−/− mice and in PN cells. […] Hsp 27, 70 and 90 are all elevated in cystic kidneys compared to normal controls. […] There is no change in Hsp 40. […] Both sets of data are consistent with an alteration in the heat shock response to cyst growth.

[3] = system: Hsp70; experiment: Cycloheximide chase, disappearance of Hsp70 in PN cells; type: cell-based, mouse; details: VX-809 10 μM with cycloheximide 25 μM
Description: FIG. 9A, FIG. 9B, FIG. 9C, FIG. 9D, FIG. 9E, FIG. 9F, FIG. 9G, and FIG. 9H show Hsp27, HSp70, and Hsp90 expression in PN cells treated with VX-809 and/or cycloheximide. (A) Pkd1 null (PN) cells were treated with VX-809 (10 μM) and/or with cycloheximide (25 μM) for indicated time points before being harvested for the assay. (FIG. 9A) Western blot showing expression of Hsp27, Hsp70, and Hsp90 in VX-809-(16 h), cycloheximide-treated, or control PN cells. ((FIG. 9B. (FIG. 9C, and (FIG. 9D) Columns represent averages±standard errors of Hsp27, Hsp70, and Hsp90 expression in cells treated with VX-809 and/or cycloheximide. ((FIG. 9E) Western blot showing expression of Hsp27, Hsp70, and Hsp90 in PN cells treated with VX-809+cycloheximide or control PN cells. ((FIG. 9F, (FIG. 9G, and (FIG. 9H) Columns represent averages±standard errors of Hsp27, Hsp70, and Hsp90 expression in cells treated only with cycloheximide or in control PN cells. Data were analyzed by non-parametric t-test. The experiments were repeated 3-5 times. *P<0.05, **P<0.01;
To gain more insight into the mechanism whereby VX-809 alters Hsp protein levels, translation was inhibited by using cycloheximide (35) and the disappearance of the three Hsps was monitored. […] Hsp 90 was reduced by approximately 25%, and Hsp27 was unchanged.

[4] = system: GADD153; experiment: Immunostaining for GADD153 in mouse kidney sections; type: in vivo; details: PN21 mice, VX-809 vs DMSO
Text: FIG. 12A, FIG. 12B, and FIG. 12C show GADD153 expression in kidneys of Pkd1^fl/fl; Pax8^rtTA; TetO-cre mice. Immunoflourescence images representing the GADD expression (green) in DMSO (FIG. 12A) or VX-809 (FIG. 12B) treated PN21 Pkd1^fl/fl in mouse. Columns (FIG. 12C) represent % area of GADD immunopositive (green) cells in DMSO or VX-809 treated PN21 Pkd1^fl/fl in mouse kidney sections. Data are expressed as mean 1+1 SEM of DMSO (vehicle)-treated (n=4) and VX-809-treated (n=4) mice. Statistical analysis was performed using a 2-tailed Student t-test. DMSO, dimethyl sulfoxide. Kidneys were fixed in 4% paraformaldehyde as described (62). Used here was the GADD153 antibody (Sc-7351), goat antirabbit (A21429, AlexaFluor 555, 1:1,000; Life Technologies, Carlsbad, Calif.) and DAPI (H-1200; Vector Laboratories, Burlingame, Calif.). […] Cells positive for GADD153 and the total number of cells were measured with ImageJ. The results are expressed as percentages;
Given that VX-809 alters an ensemble of Hsps, it was evaluated whether VX-809 alters proteins associated with ER stress. To address this question, the levels of three ER stress-associated proteins were measured, 78-kDa glucose-regulated protein (GRP78), ER oxidoreductin 1 (Ero1) and DNA damage-inducible protein 3 (GADD153), also known as C/EBP homologous protein (CHOP) (37). […]

## lumacaftor [VX-809]
[1]
  cell proliferation (BrdU): significantly inhibit cell proliferation
[2]
  Hsp27 expression in kidneys: significantly less expression
[3]
  Hsp70 levels over the 8-h period relative to time 0: approximately half the level observed at time 0
[4]
  GADD153 immunostaining in kidneys: strong reduction
